Measured values taken from publication PMC4335020, “Single Oral Dose Pharmacokinetics of Decursin and Decursinol Angelate in Healthy Adult Men and Women” (PLoS ONE, 2015).
Like-named read-outs stand apart in the source and are kept apart here.

Assay: Single oral dose human plasma pharmacokinetics of D, DA and DOH after Cogni.Q
Assay type: in vivo
Conditions: human, plasma
Excerpt: Ten healthy male and 10 female subjects were recruited by public announcement in Amarillo, TX, from January 2013 to April 2013 (see Fig. 1 CONSORT diagram). The sample size for each gender was chosen without power calculation due to the lack of prior knowledge of PK parameter variance in humans. After receiving informed consent verbally and in writing, the health status of each candidate was confirmed by health questionnaire, plasma biochemistry (hepatic and renal functions), complete blood cell count (CBC), and a physical examination by a participating academic physician. Subjects with diabetes, or pregnant, perinatal and breastfeeding women were excluded. For the 48 hours preceding study visit until the final blood draw, all subjects were instructed to avoid taking any prescription or nonprescription drugs, vitamins, and herbal/dietary supplements. Each subject was compensated for participating in the study per TTUHSC IRB approved rate.
Eligible subjects arrived at our clinical facility at 0700 (7:00 am) on the test day after a fast beginning at 2200 (10:00 pm) the previous night. After a brief review of vital signs, the nurse placed an intravenous (IV) line with saline drip in one arm of each subject. A baseline pre-dose (hour 0) blood sample was drawn through the IV line; after that subjects swallowed four Cogni.Q vegicaps with 240 mL of water at hour 0 under direct supervision. Subjects stayed at the clinical facility in their room for the next 12 hours, returning at 24 and 48 hours. Blood was drawn at baseline (hour 0) and at 0.5, 1, 2, 3, 4, 6, 8, 12, 24 and 48 hours after dosing into Vacutainer Blood Collection Tube (Becton-Dickinson, Franklin Lakes, NJ. Product Number: 367874, Sodium heparin was used as anti-coagulant). Water was allowed as desired except for within the first hour after Cogni.Q consumption. All subjects received standardized meals at post-dose hours 4.5 and 9.5 but no food was allowed for at least the first 4 hours post-dose.
Plasma was prepared by centrifuging the heparinized blood at 1000 g for 15 minutes at room temperature. Urine samples (40mL) were collected within time spans of 0–4, 4–8, 8–12 and 12–24 hours (total volume of urine was recorded). All plasma and urine samples were put on dry ice immediately and then stored at -80°C freezer until analysis.
Plasma samples were extracted with a validated solid supported liquid extraction (SLE) method facilitated with a positive pressure manifold (Biotage, Charlotte, NC). Briefly, 100 μL of plasma sample was spiked with 5 μL of 10 ng/μL prednisolone (IS), diluted with 200 μL of LC-MS grade water, mixed and loaded onto ISOLUTE SLE+ 400 μL Array Well cartridges (Biotage, Charlotte, NC). A pulse of minimum positive pressure was applied to facilitate the samples absorption into the cartridges. After the samples were allowed to absorb for 5 min, the compounds were eluted with 2×500 μL tert-butyl methyl ether. The eluent was dried in a Speedvac and the resulting residue was reconstituted in 50 μL of methanol for UHPLC-MS/MS analysis.
Eight-point calibration curves were constructed for D, DA and DOH, at concentrations of 0.1, 0.5, 1, 5, 10, 20, 50 and 100 μg/L for D and DA, and at concentrations of 1, 5, 10, 50, 100, 200, 500 and 1000 μg/L for DOH, respectively. The linear range was 0.1–100 μg/L (0.3–300 nmol/L), 0.1–100 μg/L (0.3–300 nmol/L) and 1–1000 μg/L (4–4000 nmol/L) for D, DA and DOH, respectively. The inter- and intra-assay CV were lower than 6.5% and the accuracy was between 90–105%. Calibration curve was run for each batch of samples analyzed. The mean calibration curve correlation coefficient (r) for D, DA and DOH was 0.999, 0.999 and 0.998, respectively (data from 7–10 calibration curves). In addition, 70% of the plasma samples were extracted and analyzed twice, the data from two replicate analyses were nearly identical and combined for final data analyses and presentation. […]

## CC1(C)Oc2cc3oc(=O)ccc3cc2C[C@@H]1O [DOH, decursinol]
oral, 4 Cogni.Q vegicaps, subject S9 (158 lb), read-out: Terminal t1/2, h (converted)
  half-life: 462 min
oral, 4 Cogni.Q vegicaps, subject S9 (158 lb), read-out: Tmax
  Tmax: 3 h
oral, 4 Cogni.Q vegicaps, subject S10 (185 lb), read-out: AUC0-48h
  AUC(0-t): 17400 nmol·h/L
oral, 4 Cogni.Q vegicaps, subject S10 (185 lb), read-out: Cmax
  Cmax: 1610 nM
oral, 4 Cogni.Q vegicaps, subject S10 (185 lb), read-out: Terminal t1/2, h (converted)
  half-life: 528 min
oral, 4 Cogni.Q vegicaps, subject S10 (185 lb), read-out: Tmax
  Tmax: 2 h
oral, 4 Cogni.Q vegicaps, subject S11 (178 lb), read-out: AUC0-48h
  AUC(0-t): 37300 nmol·h/L
oral, 4 Cogni.Q vegicaps, subject S11 (178 lb), read-out: Cmax
  Cmax: 3420 nM
oral, 4 Cogni.Q vegicaps, subject S11 (178 lb), read-out: Terminal t1/2, h (converted)
  half-life: 300 min
oral, 4 Cogni.Q vegicaps, subject S11 (178 lb), read-out: Tmax
  Tmax: 2 h
oral, 4 Cogni.Q vegicaps, subject S12 (169 lb), read-out: AUC0-48h
  AUC(0-t): 29100 nmol·h/L
oral, 4 Cogni.Q vegicaps, subject S12 (169 lb), read-out: Cmax
  Cmax: 2590 nM
oral, 4 Cogni.Q vegicaps, subject S12 (169 lb), read-out: Terminal t1/2, h (converted)
  half-life: 474 min
oral, 4 Cogni.Q vegicaps, subject S12 (169 lb), read-out: Tmax
  Tmax: 4 h
oral, 4 Cogni.Q vegicaps, subject S13 (192 lb), read-out: AUC0-48h
  AUC(0-t): 26100 nmol·h/L
oral, 4 Cogni.Q vegicaps, subject S13 (192 lb), read-out: Cmax
  Cmax: 2420 nM
oral, 4 Cogni.Q vegicaps, subject S13 (192 lb), read-out: Terminal t1/2, h (converted)
  half-life: 360 min
oral, 4 Cogni.Q vegicaps, subject S13 (192 lb), read-out: Tmax
  Tmax: 2 h
oral, 4 Cogni.Q vegicaps, subject S14 (200 lb), read-out: AUC0-48h
  AUC(0-t): 25700 nmol·h/L
oral, 4 Cogni.Q vegicaps, subject S14 (200 lb), read-out: Cmax
  Cmax: 3340 nM
oral, 4 Cogni.Q vegicaps, subject S14 (200 lb), read-out: Terminal t1/2, h (converted)
  half-life: 318 min
oral, 4 Cogni.Q vegicaps, subject S14 (200 lb), read-out: Tmax
  Tmax: 2 h
oral, 4 Cogni.Q vegicaps, subject S15 (177 lb), read-out: AUC0-48h
  AUC(0-t): 26100 nmol·h/L
oral, 4 Cogni.Q vegicaps, subject S15 (177 lb), read-out: Cmax
  Cmax: 4020 nM
oral, 4 Cogni.Q vegicaps, subject S15 (177 lb), read-out: Terminal t1/2, h (converted)
  half-life: 270 min
oral, 4 Cogni.Q vegicaps, subject S15 (177 lb), read-out: Tmax
  Tmax: 1 h
oral, 4 Cogni.Q vegicaps, subject S16 (175 lb), read-out: Tmax
  Tmax: 2 h
oral, 4 Cogni.Q vegicaps, subject S17 (147 lb), read-out: AUC0-48h
  AUC(0-t): 46700 nmol·h/L
oral, 4 Cogni.Q vegicaps, subject S17 (147 lb), read-out: Cmax
  Cmax: 3740 nM
oral, 4 Cogni.Q vegicaps, subject S17 (147 lb), read-out: Terminal t1/2, h (converted)
  half-life: 612 min
oral, 4 Cogni.Q vegicaps, subject S17 (147 lb), read-out: Tmax
  Tmax: 2 h
oral, 4 Cogni.Q vegicaps, subject S18 (180 lb), outlier, excluded from means, read-out: Terminal t1/2, h (converted)
  half-life: 960 min
oral, 4 Cogni.Q vegicaps, subject S18 (180 lb), read-out: AUC0-48h
  AUC(0-t): 16500 nmol·h/L
oral, 4 Cogni.Q vegicaps, subject S18 (180 lb), read-out: Cmax
  Cmax: 1160 nM
oral, 4 Cogni.Q vegicaps, subject S18 (180 lb), read-out: Tmax
  Tmax: 3 h
oral, 4 Cogni.Q vegicaps, subject S19 (130 lb), read-out: AUC0-48h
  AUC(0-t): 21400 nmol·h/L
oral, 4 Cogni.Q vegicaps, subject S19 (130 lb), read-out: Cmax
  Cmax: 2270 nM
oral, 4 Cogni.Q vegicaps, subject S19 (130 lb), read-out: Terminal t1/2, h (converted)
  half-life: 396 min
oral, 4 Cogni.Q vegicaps, subject S19 (130 lb), read-out: Tmax
  Tmax: 6 h
oral, subject S16 (175 lb), outlier, excluded from means, read-out: Terminal t1/2, h (converted)
  half-life: 900 min
oral, subject S16 (175 lb), read-out: AUC0-48h
  AUC(0-t): 16300 nmol·h/L
oral, subject S16 (175 lb), read-out: Cmax
  Cmax: 1800 nM
oral, subject S20 (200 lb), read-out: AUC0-48h
  AUC(0-t): 17900 nmol·h/L
oral, subject S20 (200 lb), read-out: Cmax
  Cmax: 1330 nM
oral, subject S20 (200 lb), read-out: Terminal t1/2, h (converted)
  half-life: 576 min
oral, subject S20 (200 lb), read-out: Tmax
  Tmax: 2 h
male, oral, 4 Cogni.Q vegicaps, Men n=10 (S1 Table), read-out: AUC0-48h, Mean
  AUC(0-t): 22500 nmol·h/L
male, oral, 4 Cogni.Q vegicaps, Men n=10 (S1 Table), read-out: Cmax, nM, Mean
  Cmax: 2350 nM
male, oral, 4 Cogni.Q vegicaps, Men n=10 (S1 Table), read-out: Tmax, h, Mean
  Tmax: 2.4 h
male, oral, Men, outliers excluded (S1 Table), read-out: Terminal t1/2, h, Mean (converted)
  half-life: 396 min
male, po, Men N = 10, single oral dose Cogni.Q, read-out: AUC0–48h, h.nmol/L Mean (SD)
  AUC(0-t): 22500 nmol·h/L
male, po, Men N = 10, single oral dose Cogni.Q, read-out: Cmax, nmol/L, Mean (SD)
  Cmax: 2350 nM
male, po, Men N = 10, single oral dose Cogni.Q, read-out: Tmax, h, Mean (SD)
  Tmax: 2.4 h
male, po, Men, outlier subjects excluded, single oral dose Cogni.Q, read-out: T1/2, h, terminal Mean (SD) (converted)
  half-life: 396 min
